Active and inactive are the calls of the source.
Legend:
[1] = growth induction of Burl-1 ts yeast mutant, dose response, counter-screen for SUMOylation pathway inhibitor project, whole organism, S. cerevisiae, luminescence (AID 463199); assay type: functional
[2] = target: T1, Heat shock factor protein 1 (Mus musculus, UniProt P38532); experiment: HSF1 potentiators in luciferase reporter cells, confirmation, cell-based, NIH3T3, luminescence, dose retest (AID 435004); assay type: functional;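 further: stress induced by proteasome inhibitor MG132 added 30 min after compound; luciferase reporter driven by HSF1 response element in NIH3T3 cells; actives raise luminescence as potentiators of the MG132 stress response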
T1 sequence (P38532 whole entry): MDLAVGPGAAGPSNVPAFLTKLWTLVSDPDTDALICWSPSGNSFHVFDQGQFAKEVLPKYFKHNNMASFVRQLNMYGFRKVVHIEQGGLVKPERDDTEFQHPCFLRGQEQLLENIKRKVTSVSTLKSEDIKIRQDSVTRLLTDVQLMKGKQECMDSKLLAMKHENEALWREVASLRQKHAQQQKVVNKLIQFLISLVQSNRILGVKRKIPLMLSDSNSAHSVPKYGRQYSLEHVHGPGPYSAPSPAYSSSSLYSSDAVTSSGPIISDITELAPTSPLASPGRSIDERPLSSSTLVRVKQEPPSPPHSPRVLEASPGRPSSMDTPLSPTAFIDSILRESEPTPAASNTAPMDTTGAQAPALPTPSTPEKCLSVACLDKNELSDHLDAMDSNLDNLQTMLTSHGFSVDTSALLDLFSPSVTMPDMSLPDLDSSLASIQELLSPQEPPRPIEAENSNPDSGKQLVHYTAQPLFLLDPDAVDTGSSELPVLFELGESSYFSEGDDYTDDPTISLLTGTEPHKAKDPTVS

[3] = target: T2, High affinity choline transporter 1 (Homo sapiens, UniProt Q9GZV3); experiment: CHT inhibitors, dose response, cell-based, 10-point CRC, membrane potential dye (AID 588401); assay type: functional;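 further: membrane potential dye fluorescence of choline-evoked depolarization via CHT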
T2 sequence (Q9GZV3 whole entry): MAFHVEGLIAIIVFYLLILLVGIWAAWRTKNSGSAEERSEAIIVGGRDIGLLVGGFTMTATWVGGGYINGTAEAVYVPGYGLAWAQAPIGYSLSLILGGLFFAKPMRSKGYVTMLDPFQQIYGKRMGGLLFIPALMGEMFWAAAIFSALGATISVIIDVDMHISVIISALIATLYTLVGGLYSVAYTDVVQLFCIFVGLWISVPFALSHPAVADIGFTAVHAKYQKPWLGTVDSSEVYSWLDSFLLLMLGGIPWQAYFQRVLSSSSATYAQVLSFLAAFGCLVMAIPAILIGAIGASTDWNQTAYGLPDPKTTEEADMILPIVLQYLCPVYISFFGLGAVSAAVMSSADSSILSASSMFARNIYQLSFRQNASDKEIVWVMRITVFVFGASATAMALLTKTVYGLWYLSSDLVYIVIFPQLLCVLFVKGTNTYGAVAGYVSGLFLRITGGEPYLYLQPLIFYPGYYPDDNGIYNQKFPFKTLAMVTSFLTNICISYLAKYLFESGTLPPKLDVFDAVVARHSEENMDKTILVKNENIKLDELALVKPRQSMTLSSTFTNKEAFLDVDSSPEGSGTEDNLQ

[4] = target: T2, High affinity choline transporter 1; experiment: CHT inhibitors, dose response, cell-based, 5-point CRC, membrane potential dye (AID 504840); assay type: functional
[5] = target: Heat shock protein HSP 90-alpha (Homo sapiens, UniProt P07900); assay type: functional, organism-based
Melanocortin receptor 4 = Melanocortin receptor 4 (Homo sapiens, UniProt P32245); experiment: MC4R antagonist potency on cAMP, dose response, cell-based, TR-FRET, biased antagonists (AID 602298); assay type: functional;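 further: antagonist potency against agonist-stimulated cAMP production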
Melanocortin receptor 4, sequence (P32245 whole entry): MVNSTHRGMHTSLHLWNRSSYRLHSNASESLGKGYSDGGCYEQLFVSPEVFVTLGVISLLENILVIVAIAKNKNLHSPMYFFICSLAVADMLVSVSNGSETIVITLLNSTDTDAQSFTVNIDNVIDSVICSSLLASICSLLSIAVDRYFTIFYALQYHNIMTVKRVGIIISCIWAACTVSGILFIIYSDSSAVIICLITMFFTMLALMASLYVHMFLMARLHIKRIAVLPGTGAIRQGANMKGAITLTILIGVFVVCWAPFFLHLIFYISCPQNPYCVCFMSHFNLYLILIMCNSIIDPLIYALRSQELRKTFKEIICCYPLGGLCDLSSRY

[6] = microbe, parasite or virus in culture; assay type: functional; conditions: Mycobacterium tuberculosis
[7] = target: Alkaline phosphatase, placental type (Homo sapiens, UniProt P05187); experiment: PLAP enzyme inhibitors, confirmation, biochemical, luminescence (AID 1512); assay type: functional
Alkaline phosphatase, placental type, sequence (P05187 whole entry): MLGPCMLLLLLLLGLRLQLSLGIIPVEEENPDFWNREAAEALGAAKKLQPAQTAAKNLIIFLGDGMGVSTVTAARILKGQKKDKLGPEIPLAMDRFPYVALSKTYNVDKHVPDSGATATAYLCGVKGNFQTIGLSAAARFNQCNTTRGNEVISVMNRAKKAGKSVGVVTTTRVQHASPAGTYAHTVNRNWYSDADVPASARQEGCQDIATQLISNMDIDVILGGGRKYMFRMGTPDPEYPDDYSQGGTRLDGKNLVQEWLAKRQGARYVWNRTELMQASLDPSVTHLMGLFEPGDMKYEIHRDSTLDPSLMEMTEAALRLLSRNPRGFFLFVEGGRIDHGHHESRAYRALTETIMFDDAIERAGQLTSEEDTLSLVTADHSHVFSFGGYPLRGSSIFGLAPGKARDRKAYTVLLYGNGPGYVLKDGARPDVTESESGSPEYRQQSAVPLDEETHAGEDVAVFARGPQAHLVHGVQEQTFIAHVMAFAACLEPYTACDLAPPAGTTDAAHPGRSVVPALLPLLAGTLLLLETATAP

[8] = nonselective inhibitors of cellular cAMP signaling, dose response, counter-screen for MC4R biased antagonist project, cell-based, TR-FRET cAMP detection (AID 602305); assay type: functional;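 further: U2OS cells stimulated with forskolin near its EC80 as the cAMP inducer; potency is for inhibition of forskolin-stimulated cAMP signaling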
Vero [9] = experiment: cells; assay type: functional; conditions: Chlorocebus sabaeus
Vero [10] = experiment: cells; assay type: functional, cell-based; conditions: Chlorocebus sabaeus
[11] = target: T3, Apoptotic protease-activating factor 1 (Homo sapiens, UniProt O14727); assay type: functional;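 on EC50 Mean: caspase-3 cleavage of fluorogenic Rh110 DEVD substrate downstream of apoptosome activation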
T3 sequence (O14727 whole entry): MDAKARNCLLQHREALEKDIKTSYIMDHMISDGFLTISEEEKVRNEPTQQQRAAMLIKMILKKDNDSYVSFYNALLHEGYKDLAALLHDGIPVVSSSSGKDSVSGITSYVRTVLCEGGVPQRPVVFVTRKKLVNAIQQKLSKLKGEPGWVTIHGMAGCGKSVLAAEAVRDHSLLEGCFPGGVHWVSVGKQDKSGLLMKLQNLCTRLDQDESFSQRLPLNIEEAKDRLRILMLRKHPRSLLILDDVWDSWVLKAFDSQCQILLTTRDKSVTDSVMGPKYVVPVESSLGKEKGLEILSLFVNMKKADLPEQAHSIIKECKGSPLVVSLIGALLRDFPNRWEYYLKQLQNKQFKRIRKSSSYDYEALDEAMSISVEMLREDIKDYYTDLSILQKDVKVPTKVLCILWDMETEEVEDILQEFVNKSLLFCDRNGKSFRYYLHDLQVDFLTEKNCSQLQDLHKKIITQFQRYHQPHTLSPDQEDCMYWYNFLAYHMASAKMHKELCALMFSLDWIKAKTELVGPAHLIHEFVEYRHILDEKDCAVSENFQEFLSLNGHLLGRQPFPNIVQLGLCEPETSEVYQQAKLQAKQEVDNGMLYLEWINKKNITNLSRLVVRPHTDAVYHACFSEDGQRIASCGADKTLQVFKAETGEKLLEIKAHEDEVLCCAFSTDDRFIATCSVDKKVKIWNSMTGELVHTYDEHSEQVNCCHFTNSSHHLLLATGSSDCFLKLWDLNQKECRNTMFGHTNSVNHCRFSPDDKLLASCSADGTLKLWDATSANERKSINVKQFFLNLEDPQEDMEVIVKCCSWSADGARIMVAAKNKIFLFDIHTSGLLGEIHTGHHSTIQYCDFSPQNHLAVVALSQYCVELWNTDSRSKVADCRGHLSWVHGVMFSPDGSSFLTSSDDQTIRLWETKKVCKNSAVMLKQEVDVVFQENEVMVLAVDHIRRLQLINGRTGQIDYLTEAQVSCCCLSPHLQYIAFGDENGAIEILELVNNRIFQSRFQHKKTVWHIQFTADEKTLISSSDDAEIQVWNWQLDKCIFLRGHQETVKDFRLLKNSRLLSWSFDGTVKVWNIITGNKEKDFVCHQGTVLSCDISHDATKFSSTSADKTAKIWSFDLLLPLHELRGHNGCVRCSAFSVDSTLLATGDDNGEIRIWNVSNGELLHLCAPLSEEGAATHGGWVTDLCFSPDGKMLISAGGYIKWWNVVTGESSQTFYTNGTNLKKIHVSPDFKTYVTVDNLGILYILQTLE

H9c2 = experiment: cells; assay type: functional, cell-based; conditions: Rattus norvegicus, H9c2, Myocardium;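 further: confirmatory concentration-response retest of ultra-high-throughput screening hits for modulation of myocardial damage; cell death induced by hydrogen peroxide oxidative stress; compound pretreatment for 60 min then peroxide exposure for 2 h; potency is for protecting the cells against peroxide damage rather than for killing them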
[12] = target: T3, Apoptotic protease-activating factor 1; experiment: SAR analysis of small molecule Activators of Apaf-1 in a Fluorescent assay.; assay type: functional; conditions: read-out: EC50_Mean
P388 = experiment: cells; assay type: functional; conditions: Mus musculus
P388/ADR = experiment: cells; assay type: functional; conditions: Mus musculus
SN12K1 = experiment: cells; assay type: functional; conditions: Homo sapiens
[13] = target: T4, Calpain-2 catalytic subunit (Sus scrofa, UniProt P43367); experiment: pig calpain II inhibitor potency, dose response, biochemical, fluorogenic peptide substrate (AID 1420); assay type: functional
T4 sequence (P43367 whole entry): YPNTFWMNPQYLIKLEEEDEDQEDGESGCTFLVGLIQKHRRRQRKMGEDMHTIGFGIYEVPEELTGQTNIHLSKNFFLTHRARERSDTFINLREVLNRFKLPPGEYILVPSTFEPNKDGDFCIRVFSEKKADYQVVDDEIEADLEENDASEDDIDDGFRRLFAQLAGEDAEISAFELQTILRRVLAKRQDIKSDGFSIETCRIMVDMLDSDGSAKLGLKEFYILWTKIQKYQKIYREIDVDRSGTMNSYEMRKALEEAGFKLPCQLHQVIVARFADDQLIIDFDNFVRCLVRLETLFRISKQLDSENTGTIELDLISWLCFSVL

Cytochrome P450 1A2 = target: T5, Cytochrome P450 1A2 (Homo sapiens, UniProt P05177);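 further: PubChem cytochrome P450 panel assay, CYP1A2 panel member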
T5 sequence (P05177 whole entry): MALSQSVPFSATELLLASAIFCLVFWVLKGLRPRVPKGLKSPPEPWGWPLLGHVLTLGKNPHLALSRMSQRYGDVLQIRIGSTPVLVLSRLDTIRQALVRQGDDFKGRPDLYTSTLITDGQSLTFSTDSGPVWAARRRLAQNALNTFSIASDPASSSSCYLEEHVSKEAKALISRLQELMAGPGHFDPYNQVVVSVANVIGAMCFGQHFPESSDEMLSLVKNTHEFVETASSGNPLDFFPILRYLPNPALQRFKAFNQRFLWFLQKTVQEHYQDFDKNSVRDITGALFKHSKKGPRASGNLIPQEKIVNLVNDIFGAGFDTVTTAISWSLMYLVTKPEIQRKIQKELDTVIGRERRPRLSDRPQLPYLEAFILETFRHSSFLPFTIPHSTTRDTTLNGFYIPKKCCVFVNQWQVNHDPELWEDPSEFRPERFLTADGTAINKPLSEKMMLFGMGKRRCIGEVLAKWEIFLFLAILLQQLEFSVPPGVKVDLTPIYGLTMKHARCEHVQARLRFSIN

Cytochrome P450 3A4 [14] = target: T6, Cytochrome P450 3A4 (Homo sapiens, UniProt P08684)
T6 sequence (P08684 whole entry): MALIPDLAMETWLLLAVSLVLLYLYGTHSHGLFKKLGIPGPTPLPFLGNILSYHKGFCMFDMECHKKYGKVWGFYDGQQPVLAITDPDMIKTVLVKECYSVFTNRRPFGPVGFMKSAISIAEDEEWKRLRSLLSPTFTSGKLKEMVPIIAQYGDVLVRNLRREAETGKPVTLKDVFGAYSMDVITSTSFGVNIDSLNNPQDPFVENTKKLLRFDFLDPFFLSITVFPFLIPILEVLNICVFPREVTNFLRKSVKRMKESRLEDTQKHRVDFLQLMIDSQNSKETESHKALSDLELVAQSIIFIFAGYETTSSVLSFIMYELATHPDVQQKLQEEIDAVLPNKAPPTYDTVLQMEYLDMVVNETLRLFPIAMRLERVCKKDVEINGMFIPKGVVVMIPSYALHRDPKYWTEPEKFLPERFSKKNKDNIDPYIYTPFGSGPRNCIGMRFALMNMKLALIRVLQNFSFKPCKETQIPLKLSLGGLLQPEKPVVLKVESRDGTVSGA

SUMO-activating enzyme = SUMO-activating enzyme (Homo sapiens, UniProt Q9UBT2); experiment: SUMOylation inhibitor hit validation, confirmation, SUMOylation inhibitor project, biochemical, AlphaScreen (AID 2018); assay type: functional
SUMO-activating enzyme, sequence (Q9UBE0 whole entry): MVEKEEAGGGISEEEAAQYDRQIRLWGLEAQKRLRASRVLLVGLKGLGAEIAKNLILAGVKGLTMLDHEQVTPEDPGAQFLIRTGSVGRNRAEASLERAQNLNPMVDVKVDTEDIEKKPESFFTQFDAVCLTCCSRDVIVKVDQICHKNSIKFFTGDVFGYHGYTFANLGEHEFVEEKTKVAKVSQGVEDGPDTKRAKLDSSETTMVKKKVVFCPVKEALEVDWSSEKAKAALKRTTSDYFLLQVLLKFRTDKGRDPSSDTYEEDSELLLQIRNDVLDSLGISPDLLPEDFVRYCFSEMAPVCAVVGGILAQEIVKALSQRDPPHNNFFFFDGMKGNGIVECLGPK
SUMO-activating enzyme, sequence (Q9UBT2 whole entry): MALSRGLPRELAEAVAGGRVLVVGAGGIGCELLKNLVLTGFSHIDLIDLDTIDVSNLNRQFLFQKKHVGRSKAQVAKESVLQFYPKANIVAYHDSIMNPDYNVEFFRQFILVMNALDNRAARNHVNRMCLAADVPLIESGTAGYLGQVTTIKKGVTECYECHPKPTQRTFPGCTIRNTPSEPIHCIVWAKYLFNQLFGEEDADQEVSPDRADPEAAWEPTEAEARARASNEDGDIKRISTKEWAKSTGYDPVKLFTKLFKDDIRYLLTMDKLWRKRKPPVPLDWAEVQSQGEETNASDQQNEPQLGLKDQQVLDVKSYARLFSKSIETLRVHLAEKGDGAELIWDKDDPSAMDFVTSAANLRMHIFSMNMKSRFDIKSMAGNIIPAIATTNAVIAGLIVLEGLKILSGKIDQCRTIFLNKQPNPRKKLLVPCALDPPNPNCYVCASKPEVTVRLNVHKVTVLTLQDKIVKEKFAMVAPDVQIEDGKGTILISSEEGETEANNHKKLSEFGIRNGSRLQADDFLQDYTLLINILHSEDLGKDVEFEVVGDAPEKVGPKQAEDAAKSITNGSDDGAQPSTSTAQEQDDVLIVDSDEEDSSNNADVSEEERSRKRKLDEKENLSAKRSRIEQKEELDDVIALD

Cytochrome P450 2C9 = Cytochrome P450 2C9 (Homo sapiens, UniProt P11712)
Cytochrome P450 2C9, sequence (P11712 whole entry): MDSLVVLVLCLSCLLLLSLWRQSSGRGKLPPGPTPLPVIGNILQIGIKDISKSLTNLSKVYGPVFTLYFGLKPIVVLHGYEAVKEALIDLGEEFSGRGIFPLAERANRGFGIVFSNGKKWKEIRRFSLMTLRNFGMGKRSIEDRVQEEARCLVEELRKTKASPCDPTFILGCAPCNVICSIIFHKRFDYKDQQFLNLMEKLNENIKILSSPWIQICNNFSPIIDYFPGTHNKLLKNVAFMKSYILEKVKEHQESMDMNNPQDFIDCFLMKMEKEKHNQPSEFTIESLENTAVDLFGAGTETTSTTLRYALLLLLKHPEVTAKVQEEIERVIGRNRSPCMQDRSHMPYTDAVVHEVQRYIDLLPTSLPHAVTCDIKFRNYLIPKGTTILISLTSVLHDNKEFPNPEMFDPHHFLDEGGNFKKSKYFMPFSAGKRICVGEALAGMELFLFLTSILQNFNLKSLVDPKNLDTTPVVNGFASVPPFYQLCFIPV

Cytochrome P450 3A4 [15] = target: T6, Cytochrome P450 3A4; conditions: Potency

In the case of `CCc1nnc(NC(=O)CSc2nc3c(cc2C#N)CCCC3)s1`, the AC50 [1] is reported as 58.2 µM (active).
In the case of `O=C(O)CC1=C(Nc2ccccc2)C(=O)N(c2ccccc2)C1c1ccc(Cl)cc1` (configuration not stated), the EC50 [2] is reported as > 260 µM (inactive), the IC50 [3] is reported as 2.7 µM (active) and the IC50 [4] is reported as 8.1 µM (active).
In the case of `O=C(NCCN1CCOCC1)Nc1ccc(Cl)cc1Cl`, the AC50 [1] is reported as 68.1 µM (active).
In the case of `Cc1ccc(S(=O)(=O)N(C(=O)c2ccncc2)c2ccc(OC(=O)c3ccncc3)cc2)c(C)c1`, the AC50 [5] is reported as 1.72 µM (active).
In the case of `c1ccc(Cn2c(CNc3nc4ccccc4n3CCN3CCCCC3)nc3ccccc32)cc1`, the IC50 (Melanocortin receptor 4) is reported as > 64.6 µM (inactive), the CC50 [6] is reported as 27.1 µM (active) and the IC50 [7] is reported as > 100 µM (inactive). For the same compound, the IC50 [8] was > 64.6 µM (inactive).
In the case of `COc1cccc(-n2c(CN3CCN(C)CC3)nc3ccc([N+](=O)[O-])cc3c2=O)c1`, the CC50 (Vero [9]) is reported as > 25 µM (active) and the IC50 (Vero [10]) is reported as 14.7 µM (active).
With `CCCCn1c(N)c(N(CC(C)C)C(=O)CSCC(=O)Nc2cccc(C)c2)c(=O)[nH]c1=O` the AC50 [1] was 54.1 µM (active).
With `CCOC(=O)c1cc(C(=O)NC(C)c2ccccc2)c(O)nc1C` (configuration not stated) the IC50 [3] was 0.34 µM (active) and the IC50 [4] was 0.798 µM (active).
With `Oc1c(Br)cc(Br)cc1/C=N/c1cccc2ncccc12` the EC50 [2] was > 260 µM (inactive), the IC50 [3] was 4.74 µM (active) and the IC50 [11] was 36 µM (active). For the same compound, the IC50 (H9c2) was 13.5 µM (active) and the IC50 [4] was 4.19 µM (active).
In the case of `Cc1cccc(C)c1N1C(=O)CC2(CC(c3ccc(F)cc3)=NO2)C1=O` (configuration not stated), the EC50 [12] is reported as > 100 µM (inactive).
With `COc1cc(NCC(C)C(=O)O)cc(OC)c1OC` (configuration not stated) the EC50 [12] was > 100 µM (inactive).
For `O=NN(CCCl)C(=O)N[C@H]1CC[C@@H](CC(=O)O)CC1`, the GI50 (P388) was 12.9 µM (inactive), the GI50 (P388/ADR) was 19.9 µM (inactive) and the GI50 (SN12K1) was > 100 µM (inactive).
In the case of `C=C1CC2CC[C@@]34C[C@@H]5O[C@@H]6C(O[C@H]7CC[C@H](CC(=O)OC8[C@@H](C)C9OC%10C[C@]%11(C[C@@H]%12O[C@@]%13(C[C@@H](C)[C@@H]%12O%11)C[C@H](C)[C@@H]%11OC%12CC(C(O)CO)OC%12C[C@@H]%11O%13)OC%10CC9O[C@H]8C[C@H]8O[C@@H](CC[C@@H]1O2)C[C@@H](C)C8=C)O[C@@H]7[C@@H]6O3)C5O4` (some centres not stated), the GI50 (P388) is reported as 0.000148 µM (active), the GI50 (P388/ADR) is reported as 0.00416 µM (active) and the GI50 (SN12K1) is reported as 0.000148 µM (active).
In the case of `Cc1ccccc1NC(=O)c1ccc(N/N=C/c2ccccc2O)c([N+](=O)[O-])c1`, the IC50 [13] is reported as 18.9 µM (not active), the AC50 (Cytochrome P450 1A2) is reported as 14.1 µM (inconclusive) and the AC50 (Cytochrome P450 3A4 [14]) is reported as 4.47 µM (inconclusive). The IC50 (SUMO-activating enzyme) was 67.3 µM (active) and the AC50 (Cytochrome P450 2C9) was “inconclusive”.
In the case of `CC1OC(=O)C(C(C)C)NC(=O)C(C(C)C)OC(=O)C(C(C)C)NC(=O)C(C)OC(=O)C(C(C)C)NC(=O)C(C(C)C)OC(=O)C(C(C)C)NC(=O)C(C)OC(=O)C(C(C)C)NC(=O)C(C(C)C)OC(=O)C(C(C)C)NC1=O` (configuration not stated), the GI50 (P388) is reported as 0.0025 µM (active), the GI50 (P388/ADR) is reported as 0.00396 µM (active) and the GI50 (SN12K1) is reported as 0.00281 µM (active). For the same compound, the AC50 (Cytochrome P450 3A4 [15]) was 12.6 µM (inconclusive).

— ChEMBL document CHEMBL1201862, “PubChem BioAssay data set” (2004)
